# Values of other authors as cited in patent US20080146639A1, “Pharmaceutical Combination of Angiotensin II Antagonists and Angiotensin I Converting Enzyme Inhibitors” (Boehringer Ingelheim Pharma GmbH & Co Kg., priority 2000, published 2008).
# Conditions: treatment with ACE inhibitor ramipril; HOPE study (New Engl. J. Med., Jan. 20, 2000)
compound,measurement,value
CCOC(=O)[C@H](CCc1ccccc1)N[C@@H](C)C(=O)N1[C@H](C(=O)O)C[C@@H]2CCC[C@@H]21 [ramipril],reduction of the risk of the combined primary cardiovascular outcome,22%
